Experimental findings from ChEMBL document CHEMBL4483862, “Open-source discovery of chemical leads for next-generation chemoprotective antimalarials” (2018) are described below.

This assay deals with Plasmodium berghei. The assay is described as follows: Luciferase/luciferin-expressing antifolate-resistant parasites were used to infect a culture of HepG2 cells that were pre-incubated with compounds. Infected hepatocytes emit light due to the luciferase reaction. Assay results are presented as the percent inhibition of light emission compared to control. […]. Particulars: sporozoite; for IC90: read-out: LUCIFERASE INFECTION ASSAY - IC90. The format is functional.

[1] abbreviates: read-out: LUCIFERASE INFECTION ASSAY - IC50.

SMILES strings stand for the structures.

In the case of `Cc1ccc(-n2nc(C)c(NC(=O)COc3ccc4c(=O)c(-c5ccccc5)coc4c3)c2C)cc1`, the IC90 came to 3.64 µM. For the same molecule, the IC50 (HEPG2TOX_HILL_SLOPE 9.24, HEPG2TOX_R_SQUARED 0.0911, PBLUC_HILL_SLOPE 28.6, PBLUC_R_SQUARED 0.544, read-out: LUCIFERASE INFECTION ASSAY - IC50) was 3.37 µM.
In the case of `Cc1cc(C(=O)Nc2ccc(Cl)cc2)c(C)n1-c1ccccc1`, the IC90 was found to be 0.729 µM. Moreover, the concentration for half-maximal inhibition (IC50) (PBLUC_HILL_SLOPE 1.26, PBLUC_R_SQUARED 0.88, read-out: LUCIFERASE INFECTION ASSAY - IC50) was found to be 0.128 µM.
Take `Cc1cc(S(=O)(=O)Oc2ccccc2C(N)=O)ccc1-n1cnnn1`: the concentration for an effect of 90% (IC90) was greater than 10 µM. Further, the IC50 (PBLUC_HILL_SLOPE 12.6, PBLUC_R_SQUARED 0.0652, read-out: LUCIFERASE INFECTION ASSAY - IC50) was 9.07 µM.
Take `c1ccc2[nH]c(CN3CCN(Cc4csc5ccccc45)CC3)nc2c1`: the IC90 was greater than 10 µM. The IC50 (PBLUC_HILL_SLOPE 5.23, 12.9, PBLUC_R_SQUARED 0.488, 0.411, read-out: LUCIFERASE INFECTION ASSAY - IC50) was found to be 9.2 µM.
For `OCc1cccc(-c2ccc3ncc(-c4cccc(Cl)c4)n3n2)c1`, the IC90 is 2.73 µM. Also, the IC50 (HEPG2TOX_HILL_SLOPE 1.23, HEPG2TOX_R_SQUARED 0.98, PBLUC_HILL_SLOPE 1.42, PBLUC_R_SQUARED 0.52, read-out: LUCIFERASE INFECTION ASSAY - IC50) came out at 0.582 µM.
As for `CC(=O)Nc1ccc(C2NC(=O)NC(c3ccccc3)=C2c2nc3ccccc3s2)cc1` (centres undefined), the IC90 is greater than 10 µM. Besides, under setting [1], the IC50 is greater than 10 µM.
Take `Cc1cc(N2CCN(c3cnn(-c4nc5ccccc5[nH]4)c(=O)c3Cl)CC2)nc(C(C)C)n1`: the IC90 was 7.33 µM. Moreover, the IC50 (HEPG2TOX_HILL_SLOPE 0.0256, HEPG2TOX_R_SQUARED 0.0179, PBLUC_HILL_SLOPE 3.18, PBLUC_R_SQUARED 0.351, read-out: LUCIFERASE INFECTION ASSAY - IC50) was 3.68 µM.
On to `O=C(Nc1ccc(I)cc1)C1CCN(C(=O)c2ccncc2)CC1`, for which the IC90 was determined as 2.8 µM. Further, the IC50 (HEPG2TOX_HILL_SLOPE 1.42, HEPG2TOX_R_SQUARED 0.857, PBLUC_HILL_SLOPE 1.13, PBLUC_R_SQUARED 0.975, read-out: LUCIFERASE INFECTION ASSAY - IC50) is 0.403 µM.
With `CCOc1cc(N2CCOCC2)c(OCC)cc1NC(=O)c1cc(Cl)c(OC)c(OC)c1`, the IC90 is greater than 10 µM. For the same molecule, under setting [1], the half-maximal inhibitory concentration (IC50) was greater than 10 µM.
`FC(F)(F)c1cc(NCc2ccccc2Cl)nc(-c2ccccn2)n1`: the IC90 stood at 6.29 µM. Also, the IC50 (PBLUC_HILL_SLOPE 3.68, PBLUC_R_SQUARED 0.577, read-out: LUCIFERASE INFECTION ASSAY - IC50) was found to be 3.46 µM.
For the molecule `CCOc1ccc(NC(=S)N/N=C2/C(=O)c3cccc4cccc2c34)cc1`, the IC90 is greater than 10 µM. The 50% inhibitory concentration (IC50) (FFLUC_HILL_SLOPE 16.1, FFLUC_R_SQUARED 0.465, PBLUC_HILL_SLOPE 2.76, PBLUC_R_SQUARED 0.814, read-out: LUCIFERASE INFECTION ASSAY - IC50) amounted to 4.61 µM.
As for `CCOc1ccccc1C(=O)N(C)Cc1nc(-c2ccccc2)no1`, the IC90 was greater than 9.78 µM. In addition, the IC50 under setting [1] was greater than 9.78 µM.
Turning to `CNc1snc(C)c1C(=O)OCc1ccc([N+](=O)[O-])cc1`, the IC90 was greater than 10 µM. Further, the IC50 under setting [1] was greater than 10 µM.
Regarding `CCN1CCC(Nc2cnc3c(c2)c(NC(=O)Cc2ccccc2)c(C(=O)OC)n3CC(C)C)CC1`, the 90% effect concentration (IC90) was greater than 6.71 µM. Also, the IC50 under setting [1] turned out to be 5.59 µM.
With `CC(C)CCOc1ccc(C(C2C(=O)CC(C)(C)CC2=O)C2C(=O)CC(C)(C)CC2=O)cc1`, the IC90 was greater than 10 µM. Besides, for the setting “FFLUC_HILL_SLOPE 1.63, FFLUC_R_SQUARED 0.537, read-out: LUCIFERASE INFECTION ASSAY - IC50”, the IC50 was greater than 10 µM.
With `Cc1ccc(-c2n[nH]c(=S)n2CCC(=O)NC(C)c2ccc(F)c(F)c2)cc1` (centres undefined), the IC90 was greater than 10 µM. The half-maximal inhibitory concentration (IC50) under setting [1] is greater than 10 µM.
For `O=C(C1CCC1)N1CCN(Cc2ccc(-c3ccc(Cl)cc3)s2)CC1`, the IC90 is greater than 10 µM. The IC50 (HEPG2TOX_HILL_SLOPE 1.83, HEPG2TOX_R_SQUARED 0.819, PBLUC_HILL_SLOPE 1.76, PBLUC_R_SQUARED 0.701, read-out: LUCIFERASE INFECTION ASSAY - IC50) is 4.2 µM.
On to `Cc1cc(C)c(S(=O)(=O)N2CCC(C(=O)Nc3nnc(C)o3)CC2)c(C)c1`, for which the IC90 is greater than 10 µM. Further, the IC50 under setting [1] is greater than 10 µM.
Consider `Cc1ccccc1-c1cnc2cnc(-c3ccc(N4CCN(C)CC4)nc3)cn12`, for which the IC90 was greater than 8.58 µM. Moreover, the IC50 (PBLUC_HILL_SLOPE 2.3, PBLUC_R_SQUARED 0.345, read-out: LUCIFERASE INFECTION ASSAY - IC50) was greater than 8.58 µM.
As to `O=C(Nc1ncc(Cc2cccc(C(F)(F)F)c2)s1)c1ccc(-n2ccnc2)nc1`, the IC90 amounted to 7.33 µM. The half-maximal inhibitory concentration (IC50) (FFLUC_HILL_SLOPE 11.4, FFLUC_R_SQUARED 0.309, HEPG2TOX_HILL_SLOPE 1.14, HEPG2TOX_R_SQUARED 0.957, PBLUC_HILL_SLOPE 2.81, PBLUC_R_SQUARED 0.544, read-out: LUCIFERASE INFECTION ASSAY - IC50) came out at 3.35 µM.
Consider `CCCc1ccc(C(=O)/C(C#N)=c2\s/c(=C\c3cccs3)c(=O)n2-c2cc(C)ccc2C)cc1`, for which the IC90 was greater than 10 µM. Also, where the note is “PBLUC_HILL_SLOPE 3.09, PBLUC_R_SQUARED 0.669, read-out: LUCIFERASE INFECTION ASSAY - IC50”, the IC50 amounted to 6.42 µM.
As for `CCc1ccc(S(=O)(=O)Nc2cc(Cl)c(O)c3ccccc23)cc1`, the concentration for an effect of 90% (IC90) was greater than 10 µM. Moreover, the IC50 (PBLUC_HILL_SLOPE 0.706, PBLUC_R_SQUARED 0.416, read-out: LUCIFERASE INFECTION ASSAY - IC50) amounted to 1.42 µM.
With `CC(=O)Nc1ccc(-c2cnc3ccc(Cc4ccc(F)cc4)nn23)cc1`, the concentration for an effect of 90% (IC90) is 1.41 µM. Further, the IC50 (PBLUC_HILL_SLOPE 11.9, PBLUC_R_SQUARED 0.515, read-out: LUCIFERASE INFECTION ASSAY - IC50) was 1.17 µM.
Turning to `O=C(Nc1cccc(Cl)c1)OCc1ccccc1F`, the concentration for an effect of 90% (IC90) is greater than 11.8 µM. Under setting [1], the IC50 is greater than 11.8 µM.
`CSc1nc2nc(C)c(CCC(=O)N(CC(F)(F)F)C(C)C3CC3)c(C)n2n1` (centres undefined): the IC90 was found to be 1.24 µM. Under setting [1], the IC50 was 0.994 µM.
As to `CC1(C)N=C(N)N=C(N)N1c1ccc([N+](=O)[O-])cc1`, the IC90 was greater than 10 µM. Further, the IC50 under setting [1] was greater than 10 µM.
In the case of `Nc1ncc(-c2cccc(OC(F)(F)F)c2)cc1-c1cncc2ccccc12`, the IC90 is 3.99 µM. Under “HEPG2TOX_HILL_SLOPE 2.29, HEPG2TOX_R_SQUARED 0.959, PBLUC_HILL_SLOPE 12.1, PBLUC_R_SQUARED 0.284, read-out: LUCIFERASE INFECTION ASSAY - IC50”, the IC50 is 3.33 µM.
In the case of `O=C1C(=O)N(CCN2CCCCC2)c2ccc(F)cc21`, the IC90 was greater than 11.9 µM. In addition, the half-inhibitory concentration (IC50) under setting [1] is greater than 11.9 µM.
As for `Cc1ccc(CN(CCc2ccccc2)Cn2nc(CCC(N)=O)n(C3CC3)c2=S)s1`, the IC90 was greater than 10 µM. Besides, under setting [1], the IC50 is greater than 10 µM.
With `CNc1snc(C)c1C(=O)OCc1nc(C(C)C)no1`, the IC90 was found to be 6.24 µM. Under setting [1], the IC50 is 6.11 µM.
For `FC1(F)Oc2ccc(Nc3cc(-c4cc(Cl)cc(Cl)c4)ncn3)cc2OC1(F)F`, the concentration for an effect of 90% (IC90) was greater than 7.4 µM. In addition, the half-maximal inhibitory concentration (IC50) (HEPG2TOX_HILL_SLOPE 15.2, HEPG2TOX_R_SQUARED 0.834, PBLUC_HILL_SLOPE 14.8, PBLUC_R_SQUARED 0.0861, read-out: LUCIFERASE INFECTION ASSAY - IC50) came to 6.88 µM.
As for `Cc1cc(C(=O)Nc2nc3ccccc3s2)c(C)n1C(C)C`, the IC90 was determined as 0.946 µM. In addition, under setting [1], the IC50 amounted to 0.121 µM.
For `CCc1cccc2c(/C=C(/C(=O)NCc3ccccn3)c3nc4ccccc4[nH]3)c[nH]c12`, the IC90 is greater than 10 µM. Further, for the setting “PBLUC_HILL_SLOPE 0.583, PBLUC_R_SQUARED 0.274, read-out: LUCIFERASE INFECTION ASSAY - IC50”, the IC50 is greater than 10 µM.
As to `N=C(NS(=O)(=O)c1ccc(Cl)c(Cl)c1)c1ccc(Cl)cc1`, the IC90 was greater than 9.07 µM. In addition, the half-inhibitory concentration (IC50) under setting [1] was greater than 9.07 µM.
Turning to `COc1cccc(C(=O)OCC(=O)c2c[nH]c3ccccc23)c1O`, the IC90 is greater than 10 µM. For the same molecule, under setting [1], the IC50 was greater than 10 µM.
Turning to `CCN(CC)c1ccc(/C=C(\C#N)c2nc3c(s2)CC(C)CC3)cc1` (centres undefined), the IC90 is greater than 10 µM. The IC50 (HEPG2TOX_HILL_SLOPE 34.4, HEPG2TOX_R_SQUARED 0.353, PBLUC_HILL_SLOPE 1.55, PBLUC_R_SQUARED 0.645, read-out: LUCIFERASE INFECTION ASSAY - IC50) amounted to 4.58 µM.
For `CCc1ccc(CN(C)C(=O)c2cccc(S(=O)(=O)Nc3ccccc3OC)c2)cc1`, the IC90 was greater than 10 µM. Under “HEPG2TOX_HILL_SLOPE 2.04, HEPG2TOX_R_SQUARED 0.142, read-out: LUCIFERASE INFECTION ASSAY - IC50”, the IC50 was greater than 10 µM.
With `Cn1c(=O)[nH]c(=O)c2c1nc(Nc1ccc(Cl)cc1Cl)n2CC(=O)O`, the 90% effect concentration (IC90) is greater than 10 µM. Further, the IC50 under setting [1] was greater than 10 µM.
As to `Cc1cc(Nc2nc3ccccc3nc2N2CCN(/C=C/c3ccccc3)CC2)n(-c2ccccc2)n1`, the IC90 is greater than 10 µM. Also, under setting [1], the IC50 is greater than 10 µM.
In the case of `CC(C)[C@H](NS(=O)(=O)c1ccccc1)C(=O)NCc1ccccc1`, the IC90 was greater than 9.53 µM. Moreover, the IC50 under setting [1] is greater than 9.53 µM.
For the molecule `O=C(Cc1csc(-c2ccccc2)n1)Nc1nc2c(s1)CCCC2`, the IC90 was greater than 10 µM. Besides, under setting [1], the IC50 is greater than 10 µM.
On to `Cc1ccc(N/C=C(\C#N)S(=O)(=O)c2ccc(Cl)cc2)cc1`, for which the IC90 was greater than 9.92 µM. In addition, the IC50 under setting [1] is greater than 9.92 µM.

A word on the IC50: it is the concentration that inhibits the measured activity by half. A word on the IC90: it is the concentration at which the effect reaches the 90% level.
